{"source": "the SangsterLogP compilation", "key": {"[1]": {"test": "method code SF-GLC, from DOI: 10.1016/s0022-3565(25)30310-1, PMID: 1181405", "conditions": "pH 7.4"}, "[2]": {"test": "not given", "remark": "listed apart in the source"}, "[3]": {"test": "method code SF-AS, from DOI: 10.1007/bf01964075", "conditions": "pH 2.1"}, "[4]": {"test": "method code SF-HPLC, from DOI: 10.1016/0378-5173(92)90116-j", "conditions": "pH 7.4"}, "[5]": {"test": "not given", "remark": "listed apart in the source"}, "[6]": {"test": "not given", "remark": "listed apart in the source"}, "[7]": {"test": "method code SF-GLC, from DOI: 10.1021/jm00240a002, PMID: 1151965"}, "[8]": {"test": "method code SF-AS, from DOI: 10.1002/jps.2600690614, PMID: 7205578"}, "[9]": {"test": "method code SF-NMR, from DOI: 10.1002/jps.2600751016, PMID: 3795031"}, "[10]": {"test": "not given", "remark": "listed apart in the source"}, "[11]": {"test": "method code SF-AS, from DOI: 10.1016/0045-6535(83)90122-4"}, "[12]": {"test": "method code SF-HPLC, from DOI: 10.1016/0378-5173(85)90011-0"}, "[13]": {"test": "method code SF-RC, from DOI: 10.1021/es60170a013"}, "[14]": {"test": "method code SF, from DOI: 10.1016/0360-3016(92)90876-j, PMID: 1735696", "conditions": "pH 7.4"}, "[15]": {"test": "method code SF-AS, from DOI: 10.1248/cpb.26.2832"}}}
{"smiles": "Cc1cc(C(=O)N2Cc3ccc(C(=O)N4CCOCC4)n3Cc3ccccc32)ccc1-c1ccccc1CCF", "values": [{"measurement": "logP", "value": 4.08}]}
{"smiles": "CNC(=O)Oc1cc(C)c(C)c(C)c1", "values": [{"measurement": "logD", "setting": "[1]", "value": 2.66}]}
{"smiles": "CCOC(=O)COc1cccc2ccccc12", "values": [{"measurement": "logP", "setting": "[2]", "value": 2.9}]}
{"smiles": "CNC(=O)[C@H](CC(C)C)NC(C)=O", "values": [{"measurement": "logD", "setting": "[3]", "value": 0.14}]}
{"smiles": "CNC(=O)CNC(C)=O", "values": [{"measurement": "logD", "setting": "[3]", "value": -1.56}]}
{"smiles": "CCC(C(=O)OCCCCCCCOC(=O)C(CC)C(CO)Cc1cncn1C)C(CO)Cc1cncn1C", "note": "(stereo unspecified)", "values": [{"measurement": "logD", "setting": "[4]", "value": 2.67}]}
{"smiles": "O=C1C2C3C=CC(CC3)C2C(=O)N1CCCCN1CCN(c2ccc3ccccc3n2)CC1", "note": "(stereo unspecified)", "values": [{"measurement": "logP", "setting": "[5]", "value": 3.83}]}
{"smiles": "O=[N+]([O-])c1c(Cl)c(Cl)c(Cl)c(Cl)c1Cl", "values": [{"measurement": "logP", "setting": "[6]", "value": 4.64}]}
{"smiles": "Cc1cc(C(=O)N2Cc3ccc(C(=O)N(CCO)CCO)n3Cc3ccccc32)ccc1-c1cc(F)ccc1C(F)(F)F", "values": [{"measurement": "logP", "value": 3.31}]}
{"smiles": "COC(F)(F)C(Cl)Cl", "values": [{"measurement": "logP", "setting": "[7]", "value": 2.21}]}
{"smiles": "CCC(C(=O)OCCCCCOC(=O)C(CC)C(CO)Cc1cncn1C)C(CO)Cc1cncn1C", "note": "(stereo unspecified)", "values": [{"measurement": "logD", "setting": "[4]", "value": 1.57}]}
{"smiles": "CCN1CCN(CC)C1=S", "values": [{"measurement": "logP", "setting": "[8]", "value": 1.13}]}
{"smiles": "CC(CCO)C(F)(F)F", "note": "(stereo unspecified)", "values": [{"measurement": "logP", "setting": "[9]", "value": 1.37}]}
{"smiles": "FC(F)(F)C(F)(F)F", "values": [{"measurement": "logP", "setting": "[7]", "value": 2}]}
{"smiles": "NC(=O)c1c(Cl)cccc1Cl", "values": [{"measurement": "logP", "setting": "[6]", "value": 1.25}]}
{"smiles": "O=C(Cc1cc(O)cc(=O)o1)c1ccccc1", "values": [{"measurement": "logP", "setting": "[10]", "value": 0.43}]}
{"smiles": "O=[N+]([O-])c1ccc(Cl)c(Cl)c1", "values": [{"measurement": "logP", "setting": "[11]", "value": 3.12}]}
{"smiles": "O=c1[nH]cnc2[nH]ncc12", "values": [{"measurement": "logD", "setting": "[12]; pH 7.4", "value": -0.55}]}
{"smiles": "O=c1cc(O)cco1", "values": [{"measurement": "logP", "setting": "[10]", "value": 0.5}]}
{"smiles": "CNC(=O)OC", "values": [{"measurement": "logD", "setting": "[1]", "value": -0.06}]}
{"smiles": "CNC(=O)C(C)NC(C)=O", "note": "(racemic)", "values": [{"measurement": "logD", "setting": "[3]", "value": -1.21}]}
{"smiles": "CC(C)C12C=CC(C)(CC1)C1C(=O)N(CCCCN3CCN(c4ccc5ccccc5n4)CC3)C(=O)C12", "note": "(stereo unspecified)", "values": [{"measurement": "logP", "setting": "[5]", "value": 6.3}]}
{"smiles": "COc1ccc(Cl)cc1", "values": [{"measurement": "logP", "setting": "[13]", "value": 2.78}]}
{"smiles": "Cc1cc(C(=O)N2Cc3ccc(C(=O)NCCF)n3Cc3ccccc32)ccc1-c1ccccc1C(F)(F)F", "values": [{"measurement": "logP", "value": 4.18}]}
{"smiles": "CCC(O)CCC(F)(F)F", "note": "(stereo unspecified)", "values": [{"measurement": "logP", "setting": "[9]", "value": 1.7}]}
{"smiles": "O=[N+]([O-])c1nccn1CC=NO", "values": [{"measurement": "logD", "setting": "[14]", "value": -0.43}]}
{"smiles": "CCC(C(=O)OCc1ccccc1COC(=O)C(CC)C(CO)Cc1cncn1C)C(CO)Cc1cncn1C", "note": "(stereo unspecified)", "values": [{"measurement": "logD", "setting": "[4]", "value": 2.03}]}
{"smiles": "O=[N+]([O-])c1c(Cl)c(Cl)cc(Cl)c1Cl", "values": [{"measurement": "logP", "setting": "[11]", "value": 3.89}]}
{"smiles": "CC(=O)n1ncc2c(=O)[nH]cnc21", "values": [{"measurement": "logP", "setting": "[12]", "value": -0.35}]}
{"smiles": "CC(C)C12CCC(C)(CC1)C1C(=O)N(CCCCN3CCN(c4ccc5ccccc5n4)CC3)C(=O)C12", "note": "(stereo unspecified)", "values": [{"measurement": "logP", "setting": "[5]", "value": 6.59}]}
{"smiles": "O=C(Cn1ccnc1[N+](=O)[O-])NCCO", "values": [{"measurement": "logD", "setting": "[14]", "value": -1.32}]}
{"smiles": "CC(=O)O/N=C/Cn1ccnc1[N+](=O)[O-]", "values": [{"measurement": "logD", "setting": "[14]", "value": -0.47}]}
{"smiles": "CN(C)CCN(Cc1cccs1)c1ccccn1", "values": [{"measurement": "logP", "setting": "[8]", "value": 2.87}]}
{"smiles": "Nc1nc[nH]n1", "values": [{"measurement": "logP", "setting": "[2]", "value": -0.87}]}
{"smiles": "CC(CO)CC(F)(F)F", "note": "(stereo unspecified)", "values": [{"measurement": "logP", "setting": "[9]", "value": 1.39}]}
{"smiles": "CS(=O)(=O)c1ccc(OCC(=O)O)cc1", "values": [{"measurement": "logP", "setting": "[2]", "value": 0.06}]}
{"smiles": "CCCCC(=O)OC1(C(=O)CO)C(C)CC2C3CCC4=CC(=O)C=CC4(C)C3(F)C(O)CC21C", "note": "(stereo unspecified)", "values": [{"measurement": "logP", "setting": "[15]", "value": 3.49}]}
{"smiles": "O=C1C2C3CCC(C3)C2C(=O)N1CCCCN1CCN(c2ccc3ccccc3n2)CC1", "note": "(stereo unspecified)", "values": [{"measurement": "logP", "setting": "[5]", "value": 3.64}]}
{"smiles": "Cc1cc(C(=O)N2Cc3ccc(C(=O)N(CCO)CCO)n3Cc3ccccc32)ccc1-c1ccccc1C(F)(F)F", "values": [{"measurement": "logP", "value": 3.21}]}
{"smiles": "CC(=O)OCC(=O)[C@@]1(O)[C@H](OC(C)=O)C[C@H]2[C@@H]3CCC4=CC(=O)C=C[C@]4(C)[C@@]3(F)[C@@H](O)C[C@@]21C", "values": [{"measurement": "logP", "setting": "[15]", "value": 1.92}]}
{"smiles": "Clc1cccc(Cl)c1", "values": [{"measurement": "logP", "setting": "[13]", "value": 3.44}]}
{"smiles": "Clc1ccc(Cl)c(Cl)c1", "values": [{"measurement": "logP", "setting": "[6]", "value": 4.03}]}
{"smiles": "S=C1NCCCN1", "values": [{"measurement": "logP", "setting": "[8]", "value": -0.68}]}
{"smiles": "O=[N+]([O-])c1cc(Cl)c(Cl)cc1Cl", "values": [{"measurement": "logP", "setting": "[11]", "value": 3.48}]}
{"smiles": "Cc1c(O)cc(C(=O)Cc2ccccc2)oc1=O", "values": [{"measurement": "logP", "setting": "[10]", "value": 0.78}]}
{"smiles": "CCC(=O)n1ncc2c(=O)[nH]cnc21", "values": [{"measurement": "logP", "setting": "[12]", "value": 0.3}]}
{"smiles": "CC(=O)OCC(=O)[C@@]1(O)CC[C@H]2[C@@H]3CCC4=CC(=O)C=C[C@]4(C)[C@H]3[C@@H](O)C[C@@]21C", "values": [{"measurement": "logP", "setting": "[15]", "value": 2.4}]}
{"smiles": "O=NN(c1ccccc1)c1ccccc1", "values": [{"measurement": "logP", "setting": "[13]", "value": 3.13}]}
{"smiles": "CCCOC(=O)NC", "values": [{"measurement": "logD", "setting": "[1]", "value": 0.95}]}
{"smiles": "CCC(C(=O)OCc1ccc(COC(=O)C(CC)C(CO)Cc2cncn2C)cc1)C(CO)Cc1cncn1C", "note": "(stereo unspecified)", "values": [{"measurement": "logD", "setting": "[4]", "value": 2.18}]}
{"smiles": "FC(F)(F)C(Cl)Br", "note": "(stereo unspecified)", "values": [{"measurement": "logP", "setting": "[7]", "value": 2.3}]}
